# Earlier results in article PMC9184245 (Journal of Pesticide Science, 2022).
# Assays:
# [1] = measured value from experimental database; ref EPI Suite ver. 4.11
# fish = conditions: biomagnification factor, corrected by lipid content and growth rate
# [2] = measured value; ref REACH registered substances database
Structure (SMILES),log Kow [1],"Bioaccumulation potential, BMF (fish)",Water solubility [2]
"c1ccc2c(c1)ccc1ccccc12 [Compound 1, Phenanthrene]",4.46^a^),,
"c1ccc(-c2ccccc2-c2ccccc2)cc1 [Compound 2, o-Terphenyl]",5.52^a^),,
"O=[N+]([O-])c1ccc(Oc2ccc(Cl)cc2Cl)cc1 [Compound 3, Nitrofen]",4.64^a^),BMF^d^)=0.179[4]),
"COc1ccc(C(c2ccc(OC)cc2)C(Cl)(Cl)Cl)cc1 [Compound 4, Methoxychlor]",5.08^a^),,
"CC(C)(C)c1cc(CCC(=O)OCC(COC(=O)CCc2cc(C(C)(C)C)c(O)c(C(C)(C)C)c2)(COC(=O)CCc2cc(C(C)(C)C)c(O)c(C(C)(C)C)c2)COC(=O)CCc2cc(C(C)(C)C)c(O)c(C(C)(C)C)c2)cc(C(C)(C)C)c1O [Compound 9, Pentaerythritol tetrakis[3-(3,5-di-tert-butyl-4-hydroxyphenyl)propionate]]",,,<0.1^c^) mg/L
